Read-outs that look alike come from different tables or passages of the source.
Key:
Assay in all cases: KINOMEscan (ScanMAX) kinase profiling
Format in all cases: binding
panel of 468 kinases [1] = biological target: T1, panel of 468 kinases (Homo sapiens, UniProt Q86Y07); details: VRK2; 1 μM; read-out: % control
T1 construct: purchased KINOMEscan (ScanMAX) service

panel of 468 kinases [2] = biological target: T2, panel of 468 kinases (Homo sapiens, UniProt Q9UPE1); details: SRPK3; 1 μM; read-out: % control
T2 construct: purchased KINOMEscan (ScanMAX) service

panel of 468 kinases [3] = biological target: T3, panel of 468 kinases (Homo sapiens, UniProt Q96L34); details: MARK4; 1 μM; read-out: % control
T3 construct: purchased KINOMEscan (ScanMAX) service
T3 sequence (Q96L34 1-752): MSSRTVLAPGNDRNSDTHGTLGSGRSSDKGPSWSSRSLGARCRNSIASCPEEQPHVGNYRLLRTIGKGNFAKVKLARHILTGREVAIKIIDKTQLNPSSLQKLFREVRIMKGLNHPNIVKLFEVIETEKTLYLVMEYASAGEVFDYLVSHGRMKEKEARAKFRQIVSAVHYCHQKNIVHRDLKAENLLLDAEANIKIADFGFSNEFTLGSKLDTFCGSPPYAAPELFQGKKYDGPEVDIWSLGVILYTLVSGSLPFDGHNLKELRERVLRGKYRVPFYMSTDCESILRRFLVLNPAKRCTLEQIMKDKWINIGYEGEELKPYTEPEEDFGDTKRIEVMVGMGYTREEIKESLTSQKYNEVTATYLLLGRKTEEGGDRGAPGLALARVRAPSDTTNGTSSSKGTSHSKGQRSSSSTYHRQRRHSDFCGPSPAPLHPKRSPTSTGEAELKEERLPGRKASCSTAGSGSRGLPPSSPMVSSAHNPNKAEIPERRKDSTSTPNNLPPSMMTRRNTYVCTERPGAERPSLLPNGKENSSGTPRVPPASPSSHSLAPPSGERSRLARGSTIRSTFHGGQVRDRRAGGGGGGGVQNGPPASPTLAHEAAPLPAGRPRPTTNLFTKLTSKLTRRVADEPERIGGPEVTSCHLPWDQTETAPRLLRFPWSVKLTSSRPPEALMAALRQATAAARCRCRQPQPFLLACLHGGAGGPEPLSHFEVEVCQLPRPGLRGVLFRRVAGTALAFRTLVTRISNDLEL

panel of 468 kinases [4] = biological target: T4, panel of 468 kinases (Homo sapiens, UniProt Q96PN8); details: TSSK3; 1 μM; read-out: % control
T4 construct: purchased KINOMEscan (ScanMAX) service
T4 sequence (Q96PN8 1-268): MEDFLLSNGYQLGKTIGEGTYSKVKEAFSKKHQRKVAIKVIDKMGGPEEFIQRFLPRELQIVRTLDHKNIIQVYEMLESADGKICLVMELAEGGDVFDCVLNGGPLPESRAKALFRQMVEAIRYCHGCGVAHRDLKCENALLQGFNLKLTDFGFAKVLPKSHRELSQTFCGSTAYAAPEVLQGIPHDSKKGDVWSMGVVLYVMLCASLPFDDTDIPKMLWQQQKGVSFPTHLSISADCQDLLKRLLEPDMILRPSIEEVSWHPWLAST

panel of 468 kinases [5] = biological target: T5, panel of 468 kinases (Homo sapiens, UniProt O14976); details: GAK; 1 μM; read-out: % control
T5 construct: purchased KINOMEscan (ScanMAX) service
T5 sequence (O14976 1-1311): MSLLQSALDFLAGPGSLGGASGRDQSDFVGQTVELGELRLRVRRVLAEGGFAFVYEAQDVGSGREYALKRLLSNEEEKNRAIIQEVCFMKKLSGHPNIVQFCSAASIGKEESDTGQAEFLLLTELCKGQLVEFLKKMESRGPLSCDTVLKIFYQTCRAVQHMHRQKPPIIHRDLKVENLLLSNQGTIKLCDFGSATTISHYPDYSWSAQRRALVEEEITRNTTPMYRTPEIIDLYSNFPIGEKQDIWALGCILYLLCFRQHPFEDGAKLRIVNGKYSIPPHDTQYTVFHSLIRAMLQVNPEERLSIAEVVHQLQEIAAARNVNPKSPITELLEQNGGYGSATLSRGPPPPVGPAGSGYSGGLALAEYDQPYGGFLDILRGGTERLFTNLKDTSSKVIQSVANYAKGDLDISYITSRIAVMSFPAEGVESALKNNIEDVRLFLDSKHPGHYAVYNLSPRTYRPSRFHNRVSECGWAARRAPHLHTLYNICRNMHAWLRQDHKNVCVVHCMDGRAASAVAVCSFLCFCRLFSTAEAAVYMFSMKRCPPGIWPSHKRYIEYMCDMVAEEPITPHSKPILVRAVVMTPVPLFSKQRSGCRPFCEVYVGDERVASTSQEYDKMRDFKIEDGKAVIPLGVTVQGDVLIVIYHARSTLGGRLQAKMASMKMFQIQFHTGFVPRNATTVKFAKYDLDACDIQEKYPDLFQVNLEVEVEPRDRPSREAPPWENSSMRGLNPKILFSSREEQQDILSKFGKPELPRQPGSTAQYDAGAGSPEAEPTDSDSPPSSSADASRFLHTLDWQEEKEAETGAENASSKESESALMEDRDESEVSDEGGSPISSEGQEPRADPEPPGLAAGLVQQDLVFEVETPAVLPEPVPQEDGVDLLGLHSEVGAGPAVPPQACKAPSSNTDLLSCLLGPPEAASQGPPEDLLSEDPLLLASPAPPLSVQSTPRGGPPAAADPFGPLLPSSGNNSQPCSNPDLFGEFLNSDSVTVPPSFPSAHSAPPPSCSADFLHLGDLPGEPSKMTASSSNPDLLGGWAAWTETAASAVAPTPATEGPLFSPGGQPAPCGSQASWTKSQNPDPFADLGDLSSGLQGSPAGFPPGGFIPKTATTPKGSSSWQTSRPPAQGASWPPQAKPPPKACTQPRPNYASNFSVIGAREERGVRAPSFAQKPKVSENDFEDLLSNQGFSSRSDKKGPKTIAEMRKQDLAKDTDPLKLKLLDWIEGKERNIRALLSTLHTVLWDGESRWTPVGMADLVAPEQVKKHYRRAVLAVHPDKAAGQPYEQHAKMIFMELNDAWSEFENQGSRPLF

panel of 468 kinases [6] = biological target: T6, panel of 468 kinases (Homo sapiens, UniProt P29597); details: 1 μM, read-out: % control
T6 construct: purchased KINOMEscan (ScanMAX) service
T6 sequence (P29597 whole entry): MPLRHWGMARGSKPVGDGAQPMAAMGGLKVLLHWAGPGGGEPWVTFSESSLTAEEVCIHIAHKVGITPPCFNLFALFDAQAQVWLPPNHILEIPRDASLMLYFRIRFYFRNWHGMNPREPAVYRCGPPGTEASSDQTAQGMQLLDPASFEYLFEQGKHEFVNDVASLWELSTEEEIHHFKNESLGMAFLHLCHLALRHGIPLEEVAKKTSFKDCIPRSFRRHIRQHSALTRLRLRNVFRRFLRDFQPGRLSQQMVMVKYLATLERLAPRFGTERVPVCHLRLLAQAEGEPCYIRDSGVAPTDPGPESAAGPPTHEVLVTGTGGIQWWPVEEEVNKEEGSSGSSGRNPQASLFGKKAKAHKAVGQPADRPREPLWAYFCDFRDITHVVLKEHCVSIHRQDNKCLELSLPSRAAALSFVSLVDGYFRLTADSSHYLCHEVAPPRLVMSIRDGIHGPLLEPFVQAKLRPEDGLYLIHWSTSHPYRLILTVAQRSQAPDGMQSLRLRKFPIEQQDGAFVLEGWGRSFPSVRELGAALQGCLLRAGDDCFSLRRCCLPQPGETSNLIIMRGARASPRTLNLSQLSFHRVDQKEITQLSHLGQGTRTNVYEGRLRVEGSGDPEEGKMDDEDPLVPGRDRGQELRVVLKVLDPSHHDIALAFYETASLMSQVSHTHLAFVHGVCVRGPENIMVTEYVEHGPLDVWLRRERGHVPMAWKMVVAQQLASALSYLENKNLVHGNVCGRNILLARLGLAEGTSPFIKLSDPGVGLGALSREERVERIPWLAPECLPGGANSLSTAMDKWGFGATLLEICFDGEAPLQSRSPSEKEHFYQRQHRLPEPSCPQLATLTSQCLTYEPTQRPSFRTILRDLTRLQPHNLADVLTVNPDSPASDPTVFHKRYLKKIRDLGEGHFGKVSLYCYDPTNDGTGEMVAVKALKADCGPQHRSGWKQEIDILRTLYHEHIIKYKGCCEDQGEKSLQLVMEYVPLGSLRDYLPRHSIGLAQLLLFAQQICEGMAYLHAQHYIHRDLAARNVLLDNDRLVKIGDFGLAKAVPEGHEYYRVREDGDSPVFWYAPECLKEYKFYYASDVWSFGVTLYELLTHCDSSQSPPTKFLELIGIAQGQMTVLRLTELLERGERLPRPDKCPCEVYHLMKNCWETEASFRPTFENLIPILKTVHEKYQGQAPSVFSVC

T2 sequence (Q9UPE1 whole entry): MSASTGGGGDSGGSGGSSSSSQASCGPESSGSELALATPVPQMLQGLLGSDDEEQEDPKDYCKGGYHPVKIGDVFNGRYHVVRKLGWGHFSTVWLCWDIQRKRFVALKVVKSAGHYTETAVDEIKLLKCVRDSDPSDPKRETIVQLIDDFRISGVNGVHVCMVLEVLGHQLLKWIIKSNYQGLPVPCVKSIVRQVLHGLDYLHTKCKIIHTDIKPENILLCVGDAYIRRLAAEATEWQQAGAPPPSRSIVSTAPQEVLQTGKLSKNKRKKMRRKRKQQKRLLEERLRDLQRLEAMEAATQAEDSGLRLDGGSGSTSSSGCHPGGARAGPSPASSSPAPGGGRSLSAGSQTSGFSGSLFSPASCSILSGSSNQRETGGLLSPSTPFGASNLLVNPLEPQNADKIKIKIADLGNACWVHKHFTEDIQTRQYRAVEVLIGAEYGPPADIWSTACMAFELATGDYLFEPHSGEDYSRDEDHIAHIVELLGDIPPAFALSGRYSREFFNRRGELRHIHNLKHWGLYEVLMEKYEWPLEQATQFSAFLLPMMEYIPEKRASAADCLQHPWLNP
T1 sequence (Q86Y07 whole entry): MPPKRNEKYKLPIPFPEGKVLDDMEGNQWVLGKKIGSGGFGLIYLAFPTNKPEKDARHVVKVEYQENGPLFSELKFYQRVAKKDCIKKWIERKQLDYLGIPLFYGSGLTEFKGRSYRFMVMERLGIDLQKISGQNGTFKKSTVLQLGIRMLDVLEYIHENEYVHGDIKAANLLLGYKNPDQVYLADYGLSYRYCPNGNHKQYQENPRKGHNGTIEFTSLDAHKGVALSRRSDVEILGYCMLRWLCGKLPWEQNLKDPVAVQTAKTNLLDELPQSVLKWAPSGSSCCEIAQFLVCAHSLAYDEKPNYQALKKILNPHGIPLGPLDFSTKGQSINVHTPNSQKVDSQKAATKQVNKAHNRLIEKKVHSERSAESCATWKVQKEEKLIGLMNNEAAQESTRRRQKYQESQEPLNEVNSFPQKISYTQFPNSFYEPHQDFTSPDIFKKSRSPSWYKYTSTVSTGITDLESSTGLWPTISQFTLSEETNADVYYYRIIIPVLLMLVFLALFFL

Structure (SMILES)	remaining binding at 1 µM (panel of 468 kinases [1]) [%]	remaining binding at 1 µM (panel of 468 kinases [2]) [%]	remaining binding at 1 µM (panel of 468 kinases [3]) [%]	remaining binding at 1 µM (panel of 468 kinases [4]) [%]	remaining binding at 1 µM (panel of 468 kinases [5]) [%]	remaining binding at 1 µM (panel of 468 kinases [6]; TYK2(JH1domain-catalytic)) [%]	remaining binding at 1 µM (panel of 468 kinases [6]; TYK2(JH2domain-pseudokinase)) [%]
CNc1nc(Nc2ccc(S(=O)(=O)N3CCC(N4CCOCC4)CC3)cc2OC)nc2[nH]cc(Cl)c12 [Compound 12, 5-chloro-N2-(2-methoxy-4-((4-morpholinopiperidin-1-yl)sulfonyl)phenyl)-N4-methyl-7H-pyrrolo[2,3-d]pyrimidine-2,4-diamine]	94	99	98	100	3.8	90	88
CNc1nc(Nc2ccc(C(=O)N3CCC(N4CCOCC4)CC3)c3c2OCO3)nc2[nH]cc(Cl)c12 [Compound 75, (7-((5-chloro-4-(methylamino)-7H-pyrrolo[2,3-d]pyrimidin-2-yl)amino)benzo[d][1,3]dioxol-4-yl)(4-morpholinopiperidin-1-yl)methanone]	88	40	96	100	0.55	46	100
CNc1nc(Nc2ccc(P3(=O)CCN(C4CCOCC4)CC3)cc2OC)nc2[nH]cc(Cl)c12 [Compound 77, 4-(4-((5-chloro-4-(methylamino)-7H-pyrrolo[2,3-d]pyrimidin-2-yl)amino)-3-methoxyphenyl)-1-(tetrahydro-2H-pyran-4-yl)-1,4-azaphosphinane 4-oxide]	89	88	97	100	0.9	66	82
